Assay results as given in patent US9789102B2, “H3 receptor antagonist for use in the treatment of alzheimer's disease” (SANOFI, priority 2012, dated 2017).

Tests used:
[1] = system: protein tau phosphorylation at AD-2 epitope; assay: Western blot of tau phosphorylation at AD-2 epitope after two-week administration (Example 2); format: in vivo; details: THY-Tau22 mice
Experimental: For immunoblot analysis, frozen mouse tissues (either hippocampus or cortex) were homogenized using a Precellys 24 tissue homogenizer in 350 μl RIPA buffer from Cell Signaling (20 mM Tris-HCl (pH 7.5), 150 mM NaCl, 1 mM Na2 EDTA, 1 mM EGTA, 1% NP-40, 1% sodium deoxycholate, 2.5 mM sodium pyrophosphate, 1 mM beta-glycerophosphate, 1 mM Na3VO4, 1 μg/ml leupeptin) to which proteases inhibitors (Sigma cocktail 1% v/v) and phosphatases inhibitors (okadaic acid 1 μM, sodium fluoride 100 mM) were added. After centrifugation, 16000×g 4° C. for 10 minutes, protein content in supernatants was determined with BioRad DC Protein Assay kit, using BSA as a standard. […] Tau protein was detected using the following mouse antibody: AD-2 1/20.000^e (Biorad, 56484) which recognizes tau protein phosphorylated on Ser396 and Ser404. […]
Following incubation with primary antibodies, blots were rinsed in TBS Tween 0.1% and incubated for 1 hour at room temperature in an anti-mouse IgG horseradish peroxidase (HRP)-linked secondary antibody 1/10,000^e (GE healthcare, NA9310) diluted in 5% non-fat dry milk in TBS Tween 0.1%. […] Quantification of immunoreactive signal was performed using Multigauge V3.0 software (FUJIFILM). […]

[2] = system: protein tau hyperphosphorylation on AT-8 (pSer199-202/Thr205) epitope; assay: AT8 immunohistochemistry with quantitative image analysis after six months in food; format: in vivo, THY-Tau22 mice; details: for protein tau phosphorylation on AT-8 epitope in cortex, vs vehicle: n=9; for decrease of the number of AT8-positive neuronal cells, cortex: significant
From the text: 2-(Cyclohexylmethyl)-N-{2-[(2S)-1-methylpyrrolidin-2-yl]ethyl}-1,2,3,4-tetrahydroisoquinoline-7-sulfonamide difumarate monohydrate was administrated as a supplement in food at doses of 0.00034%, 0.0034% and 0.034% for six months in THY-Tau22 and wild type mice as follows: • Tg Veh (n=17) • Tg Active Ingredient—0.034% (n=17) • Tg Active Ingredient—0.0034% (n=17) • Tg Active Ingredient—0.00034% (n=17) • WT Veh (n=17) • WT Active Ingredient—0.034% (n=17) • WT Active Ingredient—0.0034% (n=17) • WT Active Ingredient—0.00034% (n=17) • WT groups treated with Active Ingredient are not used in the biochemical and histological studies.
After mice were decapitated, brains were removed and one hemibrain (used for histopathological studies) was immersion-postfixed for seven days at 4° C. with 4% formaldehyde (Carlo Erba/code 415691). The other hemibrain was prepared for biochemical quantitative measurements.
Post-fixed hemibrains were incubated in phosphate-buffered saline (PBS, P 3813-10PAK, Sigma), transferred to a 20% sucrose solution (code 27480.294—Prolabo) for 48 hours at 4° C. to ensure good cryopreservation of tissues during subsequent freezing. For freezing, hemibrains were immersed for one minute in isopentane solution (Ref. No. 24872-323—Prolabo) cooled with dry ice to between −25° C. and −30° C. and then stored at −25° C.
The entire hemibrains were cut with a cryostat (Microm, HM560). Serial sagittal brain tissue sections were collected onto Superfrost plus microscope glass slides (VWR) and then stored at −20° C. (sections of 20 μm of thickness), or placed in PBS-sodium azide 0.1% (S-2002, Sigma) containing wells to avoid any contamination and stored at 4° C. (sections of 30 μm of thickness).
Hyperphosphorylated microtubule-associated protein tau is the major component of the paired helical filament. Phosphorylation-dependent anti-tau antibodies can be used to identify specific amino acids that are phosphorylated in tau from normal brain and AD brain. For example, the monoclonal antibody, AT8, is widely used. Antibody that can detect the phosphorylated serine 202 and the phosphorylated threonine 205 epitopes of phosphorylated tau (AT8 epitope (M. Goedert et al., Neuroscience Letters, (1995) 189, 3, pp. 167-169)).
An immunohistochemical protocol using the AT8 antibody and based upon the avidin-biotin horseradish peroxidase method was applied on 30 μm free-floating sections. The detailed protocol is as follows:
The following reagents are used: 0.1M PBS buffer in 1 liter of H2O (2.23 g of NaH2PO4, 2H2O (Prolabo Ref. No. 33 616.262), 29 g of Na2HPO4, 12 H2O (Prolabo Ref. No. 28 028.298), 9 g of NaCl (Prolabo Ref. No. 27 810.295)); PBS-Triton (0.15%) buffer Triton×100 (Sigma Ref. No. 23 479-9) (PBS-T) (1 l of 0.1M PBS buffer, 1.5 ml of Triton); 0.2M PBS buffer in 1 liter of H2O (4.46 g of NaH2PO4, 2H2O, 58 g of Na2HPO4, 12H2O, 18 g of NaCl); 30% H2O2 (Sigma Ref. No. H 1009); 3,3′-diaminobenzidine tetrahydrochloride (Sigma Ref. No. D9015, 100 mg stored at −20° C.); Vectastain® ABC Kit (Ref. No. PK 4000, Vector); BSA: bovine serum albumin (Sigma Ref. No. A8022).
Sections were preincubated for 3×10 minutes in 0.1 M-PBS-0.15% triton solution and then in 0.1M-PBS-1.5% hydrogen peroxide-50% methanol at room temperature for 30 minutes. After 3 washings in 0.1 M-PBS-0.15% triton, they were further incubated in blocking buffer [i.e., in BSA diluted at 10% in 0.01 M PBS] for 30 minutes. They were incubated at room temperature overnight with mouse anti-human PHF-Tau monoclonal antibody (clone AT8, Thermo Science, MN1020, dilution 1/500 in 0.1M PBS-0.05% Triton) and then with the secondary antibody (anti-mouse IgG biotinylated whole antibody from goat, Amersham, RPN1177, dilution 1/500 in 0.1M PBS-0.05% Triton) for 1 h 30. They were finally incubated in peroxidase-coupled avidin complex (Vectastain ABC kit, Vector Laboratories, dilution 1/400 in 0.1M PBS) for 30 minutes. […]

SMILES: CN1CCC[C@H]1CCNS(=O)(=O)c1ccc2c(c1)CN(CC1CCCCC1)CC2 [2-(cyclohexylmethyl)-N-{2-[(2S)-1-methylpyrrolidin-2-yl]ethyl}-1,2,3,4-tetrahydroisoquinoline-7-sulfonamide difumarate monohydrate]
- effect on protein tau phosphorylation at AD-2 epitope in the hippocampus ([1]; 0.002% in drinking water): did not elicit any effect
- effect on protein tau phosphorylation at AD-2 epitope in the hippocampus ([1]; 0.02% in drinking water): did not elicit any effect
- protein tau phosphorylation on AT-8 epitope in cortex, vs vehicle ([2]; 0.0034% in food, six months): statistical significant decrease
- intensity of AT8-immunostaining within neuronal cell bodies and fibers, cortex ([2]; 0.0034% in food, six months, qualitatively observed): decrease
- decrease of the number of AT8-positive neuronal cells, cortex ([2]; 0.0034% in food, six months): −47%
- protein tau phosphorylation on AT-8 epitope in cortex, vs vehicle ([2]; 0.034% in food, six months): statistical significant decrease
- decrease of the number of AT8-positive neuronal cells, cortex ([2]; 0.034% in food, six months): −32%
- AT8-positive neuronal cell number in other ROIs (amygdala, CA1 and dentate gyrus hippocampal subareas) ([2]; six months in food): No significant decrease
